In one data set the target is T1, Adenosine receptor A2b (Homo sapiens, UniProt P29275).
T1 sequence (P29275 whole entry): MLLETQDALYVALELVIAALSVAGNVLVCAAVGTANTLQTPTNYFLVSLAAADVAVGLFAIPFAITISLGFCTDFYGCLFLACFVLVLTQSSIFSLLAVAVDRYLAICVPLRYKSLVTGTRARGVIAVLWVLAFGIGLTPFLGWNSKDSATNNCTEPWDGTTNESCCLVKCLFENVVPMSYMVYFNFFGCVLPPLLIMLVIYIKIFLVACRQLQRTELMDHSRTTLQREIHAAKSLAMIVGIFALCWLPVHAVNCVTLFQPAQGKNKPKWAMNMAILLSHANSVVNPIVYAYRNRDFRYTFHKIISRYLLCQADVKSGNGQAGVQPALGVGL
The data set is described as follows: Displacement of [3H]DPCPX from human A2BAR incubated for 60 mins by scintillation counter analysis.

A further data set has as its system MC-38. The data set is described as follows: Antitumor activity against mouse MC38 cells xenografted in C57 mouse assessed as tumor growth inhibition at 90 mg/kg, po administered twice a day. The class given is functional. Particulars: read-out: TGI.
The target in another data set is T2, Adenosine receptor A3 (Homo sapiens, UniProt P0DMS8).
T2 sequence (P0DMS8 whole entry): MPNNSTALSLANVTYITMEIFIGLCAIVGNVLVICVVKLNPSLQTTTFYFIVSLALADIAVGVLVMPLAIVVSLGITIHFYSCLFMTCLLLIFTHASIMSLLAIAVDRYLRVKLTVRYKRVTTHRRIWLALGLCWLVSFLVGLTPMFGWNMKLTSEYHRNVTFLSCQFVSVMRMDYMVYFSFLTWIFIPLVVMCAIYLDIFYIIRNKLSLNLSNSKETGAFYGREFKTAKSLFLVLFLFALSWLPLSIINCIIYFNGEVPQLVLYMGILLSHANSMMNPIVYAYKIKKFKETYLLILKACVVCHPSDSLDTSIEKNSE
The data set is described as follows: Displacement of [3H]HEMADO from human A3AR incubated for 60 mins by scintillation counter analysis. For orientation: Loss of bound radioactivity is the signal in a displacement assay; it reports binding, not function.

The nature of data set [1]: Clearance in male ICR mouse at 20 mg/kg, ip measured up to 24 hrs by LC-MS/MS analysis. In kind it is ADME, organism-based. Particulars: in vivo.
Data set [2] deals with T3, Protein deacetylase HDAC6 (Homo sapiens, UniProt Q9UBN7).
T3 sequence (Q9UBN7 whole entry): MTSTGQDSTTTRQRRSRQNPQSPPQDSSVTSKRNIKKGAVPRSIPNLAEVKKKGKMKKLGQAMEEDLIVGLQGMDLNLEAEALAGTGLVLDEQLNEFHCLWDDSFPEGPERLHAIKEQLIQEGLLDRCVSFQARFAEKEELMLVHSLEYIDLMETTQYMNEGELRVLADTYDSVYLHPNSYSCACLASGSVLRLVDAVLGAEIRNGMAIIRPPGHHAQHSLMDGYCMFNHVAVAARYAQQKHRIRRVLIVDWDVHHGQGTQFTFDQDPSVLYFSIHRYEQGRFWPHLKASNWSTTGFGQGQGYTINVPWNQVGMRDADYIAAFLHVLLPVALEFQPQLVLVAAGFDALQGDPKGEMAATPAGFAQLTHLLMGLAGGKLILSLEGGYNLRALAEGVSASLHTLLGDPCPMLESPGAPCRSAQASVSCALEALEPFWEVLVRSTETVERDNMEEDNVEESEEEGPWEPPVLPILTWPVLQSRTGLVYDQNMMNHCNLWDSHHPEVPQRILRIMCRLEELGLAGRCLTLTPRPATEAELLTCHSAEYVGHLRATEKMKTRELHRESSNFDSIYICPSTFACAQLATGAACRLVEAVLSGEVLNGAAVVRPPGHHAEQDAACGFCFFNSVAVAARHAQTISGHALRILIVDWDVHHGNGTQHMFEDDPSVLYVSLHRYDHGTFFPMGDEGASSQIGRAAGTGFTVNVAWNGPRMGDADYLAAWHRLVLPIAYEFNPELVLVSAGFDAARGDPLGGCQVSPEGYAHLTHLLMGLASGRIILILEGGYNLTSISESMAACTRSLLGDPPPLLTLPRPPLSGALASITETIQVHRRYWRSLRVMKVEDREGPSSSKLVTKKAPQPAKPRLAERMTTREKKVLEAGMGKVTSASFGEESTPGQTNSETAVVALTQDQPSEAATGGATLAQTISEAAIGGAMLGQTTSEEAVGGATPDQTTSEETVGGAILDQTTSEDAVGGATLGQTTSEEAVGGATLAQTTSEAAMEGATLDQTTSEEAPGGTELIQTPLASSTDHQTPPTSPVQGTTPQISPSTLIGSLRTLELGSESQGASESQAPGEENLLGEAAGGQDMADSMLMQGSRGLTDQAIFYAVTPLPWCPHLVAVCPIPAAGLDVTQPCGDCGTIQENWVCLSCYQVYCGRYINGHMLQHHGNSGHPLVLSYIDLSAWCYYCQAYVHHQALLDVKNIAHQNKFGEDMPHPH
The data set is described as follows: Inhibition of HDAC6 (unknown origin) using trypsin and LGK(Ac)-AMC as substrates incubated for 1 hr and measured by fluorescence assay.

A short description of data set [3]: Elimination rate constant in male ICR mouse at 20 mg/kg, po measured up to 24 hrs by LC-MS/MS analysis. Particulars: in vivo. In kind it is ADME, organism-based.
The nature of data set [4]: AUC (0 to t) in male ICR mouse at 20 mg/kg, po measured up to 24 hrs by LC-MS/MS analysis. Particulars: in vivo. On the set-up: time < 24 hrs, dose 20 mg/kg, route po. In kind it is ADME, organism-based.
Data set [5] in a line: Cmax in male ICR mouse at 20 mg/kg, ip measured up to 24 hrs by LC-MS/MS analysis. In kind it is ADME, organism-based. On the set-up: time < 24 hrs, dose 20 mg/kg, route ip. The following applies: in vivo.

Molecules are shown by their SMILES.

The term Ki denotes a measure of affinity in units of concentration, obtained from inhibition or displacement. Higher therefore signals a looser hold on the target. As usually defined, the CL/F is clearance divided by bioavailability, as obtained after extravascular dosing. As usually defined, the IC50 is the concentration needed to halve the response being measured. A low value points to inhibition by little substance. Broadly, the AUC(0-t) is the area under the concentration-time curve up to a stated or last time point. A low value points to low exposure. As a reminder, the Cmax is the peak of the concentration-time curve. With `Nc1nc(-c2ccco2)c2cnn(CCc3ccc(C(=O)Nc4ccccc4N)cc3)c2n1`, the inhibitory constant (Ki) at Adenosine receptor A2b and on Adenosine receptor A3 was over 10 µM in each case. Besides, the inhibition in vivo at 90 mg/kg with MC-38 came out at 44%. The same compound came in with a CL/F in data set [1] of 33.5 mL/min/kg. Further, the IC50 in data set [2] was over 10 µM. Moreover, in data set [3], the k el at 24 h was 0.000108 s⁻¹. This compound also came in with an AUC(0-t) at 24 h in data set [4] of 3600 ng·h/mL. The compound also showed a Cmax in data set [5] of 8410 ng/mL.

Values taken from ChEMBL document CHEMBL5154845, “Dual-acting antitumor agents targeting the A2A adenosine receptor and histone deacetylases: Design and synthesis of 4-(furan-2-yl)-1H-pyrazolo[3,4-d]pyrimidin-6-amine derivatives” (Eur J Med Chem, 2022).
